{"source": "patent US8658390B2", "about": "“Method for detecting muscle degenerative diseases, and method for determining therapeutic efficacy on the diseases” (Osaka Bioscience Institute, priority 2009, dated 2014)", "key": {"mdx mice [1]": {"tested_on": "mdx mice", "assay": "Urine Tetranor-PGDM concentration in mdx mice (HPLC-MS/MS)", "type": "in vivo, mouse", "conditions": "oral, 30 mg/kg for 5 days (FIG. 1, left)", "protocol": "(§1) Muscular dystrophy mouse: mdx (C57Bl/10 ScSn; available from JAX Laboratories)\nA solvent (0.5% methylcellulose solution) or test compound 1 was orally administered to mdx mice, 4 weeks old, for 5 days at a dose of 30 mg/kg. Using a metabolism cage for mice, urine was collected over the course of about 12 hours before the administration of test compound 1 and 5 days after the administration. For comparison, urine was also collected from wild-type mice of the same weeks old and the same lineage used as a control. The creatinine concentration in urine was measured using a measurement kit (L-type Wako CRE M, Wako Pure Chemical Industries, Ltd.). […]\nThe pretreated urine sample was used for the measurement of Tetranor-PGDM levels. […] MRM (Multiple Reaction Monitoring) was used for quantification. In this technique, only the true parent ions are specifically selected from the mass of the parent ions (precursor ion) and of the fragment ions resulting from CID (collision-induced dissociation), and the parent ions are accurately quantified from the area of the selected ions. […] The fragment ions are then isolated in a second mass analyzer (Q3), and detected at the detector provided downstream. […] Area calculations were performed for the peaks originating from the Tetranor-PGDM in the resulting mass chromatogram, and each peak was quantified from the standard curve created from the standard sample. […]"}, "mdx mice [2]": {"tested_on": "mdx mice", "assay": "Forefoot grip strength of mdx mice (symptom evaluation)", "type": "in vivo, mouse", "conditions": "4 weeks old, oral, 30 mg/kg for 5 days, solvent group showed no significant change (FIG. 1, right)", "protocol": "as §1\nA solvent (0.5% methylcellulose solution) or test compound 1 was orally administered to mdx mice, 4 weeks old, for 5 days at a dose of 30 mg/kg. Using a metabolism cage for mice, urine was collected over the course of about 12 hours before the administration of test compound 1 and 5 days after the administration. For comparison, urine was also collected from wild-type mice of the same weeks old and the same lineage used as a control. The creatinine concentration in urine was measured using a measurement kit (L-type Wako CRE M, Wako Pure Chemical Industries, Ltd.).\nFor the symptom evaluation of the mdx mice, the forefoot grip strength was measured using a grip dynamometer for mice (traction meter; BrainSienceldea). Each measurement was made in 2 min, and the mean value of five trials was calculated."}, "CXMDJ [3]": {"tested_on": "CXMDJ", "assay": "Urine Tetranor-PGDM concentration in muscular dystrophy dog CXMDJ (HPLC-MS/MS)", "type": "in vivo", "source_text": "Muscular dystrophy dog: CXMDJ (CXMDJ; available from National Center of Neurology and Psychiatry)\nCXMDJ was orally administered with a solvent (0.5% methylcellulose solution) or test compound 2 for about 1 year, followed by the administration of test compound 2 for the solvent-administrated dog, and the solvent for the test compound 2-administered dog. Urine was collected before switching from the solvent to test compound 2, and from test compound 2 to the solvent. Urine was collected over time after the administered solution was switched. For comparison, urine was also collected from normal beagles used as a control.\nThe urine (200 μL) collected from the mice or dogs was mixed with 5 ng of deuterium-labeled Tetranor-PGDM-d6 (Cayman Chemical) used as internal standard. The volume was adjusted to 2 mL with purified water, and pH was adjusted to 3. The urine was then injected to a Sep-Pak Vac C18 cartridge (Waters) equilibrated with acetonitrile (5 mL) and purified water (5 mL). The sample was washed with a 10% acetonitrile solution (5 mL) prepared using purified water, and with hexane (10 mL), and eluted with ethyl acetate (5 mL) before being dried under a stream of nitrogen. The residue was dissolved in a 10% acetonitrile solution (100 μL) prepared using purified water, and used as a measurement sample.\nThe pretreated urine sample was used for the measurement of Tetranor-PGDM levels. […] MRM (Multiple Reaction Monitoring) was used for quantification. In this technique, only the true parent ions are specifically selected from the mass of the parent ions (precursor ion) and of the fragment ions resulting from CID (collision-induced dissociation), and the parent ions are accurately quantified from the area of the selected ions. […] The fragment ions are then isolated in a second mass analyzer (Q3), and detected at the detector provided downstream. Tetranor-PGDM (mass number 328) was detected by using any of the ions with a m/z (mass number charge) of 155, 143, and 109 produced by further decomposing the product ions with a m/z of 327 by CID (collision-induced dissociation). The internal standard Tetranor-PGDM-d6 (mass number 334) was detected by using any of the product ions with a m/z (mass number÷charge) of 161, 149, and 109 produced by further decomposing the product ions with a m/z of 333 by CID (collision-induced dissociation). […] Area calculations were performed for the peaks originating from the Tetranor-PGDM in the resulting mass chromatogram, and each peak was quantified from the standard curve created from the standard sample. In the quantification, correction was made by using the area value of the peak originating from the Tetranor-PGDM-d6 introduced as the internal standard for the correction of the extraction efficiency and ionization efficiency in each analysis."}, "CXMDJ [4]": {"tested_on": "CXMDJ", "assay": "Symptom scores of muscular dystrophy dog CXMDJ", "type": "in vivo"}, "[5]": {"conditions": "CXMDJ switched to solvent after about 1 year of oral test compound 2 (FIG. 2, left)"}, "[6]": {"conditions": "CXMDJ switched to the inhibitor after about 1 year of oral solvent (FIG. 2, right)"}}, "data": [{"smiles": "c1ccc(C(OC2CCN(CCCc3nnn[nH]3)CC2)c2ccccc2)cc1", "note": "[Test compound 1, 4-benzhydryloxy-1-{3-(1H-tetrazol-5-yl)-propyl}piperidine]", "values": [{"measurement": "Tetranor-PGDM concentration in urine", "setting": "mdx mice [1]", "value": "significantly lower"}, {"measurement": "forefoot grip strength", "setting": "mdx mice [2]", "value": "significantly increased"}]}, {"smiles": "CON(C)C(=O)c1[nH]c(C)c(-c2nc3ccc(C(=O)c4ccccc4)cc3[nH]2)c1C", "note": "[Test compound 2]", "values": [{"measurement": "Tetranor-PGDM concentration in urine", "setting": "CXMDJ [3]; CXMDJ dog orally administered with test compound 2, compared with CXMDJ dog (Table 1)", "value": "decreased"}, {"measurement": "urine Tetranor-PGDM concentration", "setting": "CXMDJ [3]; [5]", "value": "increased"}, {"measurement": "urine Tetranor-PGDM concentration", "setting": "CXMDJ [3]; [6]", "value": "decreased"}, {"measurement": "Tetranor-PGDM concentration", "setting": "CXMDJ [3]; urine of HPGDS inhibitor-administered CXMDJ dog (CXMDJ dog without inhibitor 27.8)", "value": 17.9, "unit": "ng/mL"}, {"measurement": "symptom scores", "setting": "CXMDJ [4]; [5]", "value": "worsened"}, {"measurement": "symptom scores", "setting": "CXMDJ [4]; [6]", "value": "improved"}]}]}
